Values after ≈ are worked out from the molar mass of the structure shown.
Tests used:
Micrococcus luteus [1] = assay: Antibacterial activity against Sarcina lutea after 24 hrs by two fold serial dilution technique; format: functional
Proteus vulgaris [2] = assay: Antibacterial activity against Proteus vulgaris after 24 hrs by two fold serial dilution technique; format: functional
Pseudomonas aeruginosa [3] = assay: Antibacterial activity against Pseudomonas aeruginosa ATCC 27953 assessed as diameter of inhibition zone at 1 mg/ml after 24 hrs by agar well diffusion method; format: functional; conditions: ATCC 27953, 24 h, read-out: DIZ
Priestia megaterium [4] = assay: Antibacterial activity against Bacillus megaterium ATCC 9885 assessed as diameter of inhibition zone at 1 mg/ml after 24 hrs by agar well diffusion method; format: functional; conditions: ATCC 9885, 24 h, read-out: DIZ
Proteus vulgaris [5] = assay: Antibacterial activity against Proteus vulgaris assessed as diameter of inhibition zone at 1 mg/ml after 24 hrs by agar well diffusion method; format: functional; conditions: read-out: DIZ
Bacillus subtilis [6] = assay: Antibacterial activity against Bacillus subtilis ATCC 6633 after 24 hrs by two fold serial dilution technique; format: functional; conditions: ATCC 6633, 24 h
Staphylococcus aureus [7] = assay: Antibacterial activity against Staphylococcus aureus ATCC 29213 after 24 hrs by two fold serial dilution technique; format: functional; conditions: ATCC 29213, 24 h
Klebsiella pneumoniae [8] = assay: Antibacterial activity against Klebsiella pneumoniae ATCC 13883 after 24 hrs by two fold serial dilution technique; format: functional; conditions: ATCC 13883, 24 h
Escherichia coli [9] = assay: Antibacterial activity against Escherichia coli ATCC 25922 assessed as diameter of inhibition zone at 1 mg/ml after 24 hrs by agar well diffusion method; format: functional; conditions: ATCC 25922, 24 h, read-out: DIZ
Micrococcus luteus [10] = assay: Antibacterial activity against Sarcina lutea assessed as diameter of inhibition zone at 1 mg/ml after 24 hrs by agar well diffusion method; format: functional; conditions: read-out: DIZ
Bacillus subtilis [11] = assay: Ratio of Ciprofloxacin MIC to compound MIC for Bacillus subtilis ATCC 6633; format: functional
Escherichia coli [12] = assay: Antibacterial activity against Escherichia coli ATCC 25922 after 24 hrs by two fold serial dilution technique; format: functional; conditions: ATCC 25922, 24 h
Bacillus subtilis [13] = assay: Antibacterial activity against Bacillus subtilis ATCC 6633 assessed as diameter of inhibition zone at 1 mg/ml after 24 hrs by agar well diffusion method; format: functional; conditions: ATCC 6633, 24 h, read-out: DIZ
Saccharomyces cerevisiae [14] = assay: Antifungal activity against Saccharomyces cerevisiae assessed as diameter of inhibition zone at 1 mg/ml after 24 hrs by agar well diffusion method; format: functional; conditions: read-out: DIZ
Klebsiella pneumoniae [15] = assay: Antibacterial activity against Klebsiella pneumoniae ATCC 13883 assessed as diameter of inhibition zone at 1 mg/ml after 24 hrs by agar well diffusion method; format: functional; conditions: ATCC 13883, 24 h, read-out: DIZ
Candida albicans [16] = assay: Antifungal activity against Candida albicans NRRLY-477 after 24 hrs by two fold serial dilution technique; format: functional; conditions: NRRLY-477, 24 h
Staphylococcus aureus [17] = assay: Antibacterial activity against Staphylococcus aureus ATCC 29213 assessed as diameter of inhibition zone at 1 mg/ml after 24 hrs by agar well diffusion method; format: functional; conditions: ATCC 29213, 24 h, read-out: DIZ
Candida albicans [18] = assay: Antifungal activity against Candida albicans NRRLY-477 assessed as diameter of inhibition zone at 1 mg/ml after 24 hrs by agar well diffusion method; format: functional; conditions: NRRLY-477, 24 h, read-out: DIZ
Pseudomonas aeruginosa [19] = assay: Antibacterial activity against Pseudomonas aeruginosa ATCC 27953 after 24 hrs by two fold serial dilution technique; format: functional; conditions: ATCC 27953, 24 h
Saccharomyces cerevisiae [20] = assay: Antifungal activity against Saccharomyces cerevisiae after 24 hrs by two fold serial dilution technique; format: functional
Candida albicans [21] = assay: Ratio of ketoconazole MIC to compound MIC for Candida albicans NRRLY-477; format: functional
Priestia megaterium [22] = assay: Antibacterial activity against Bacillus megaterium ATCC 9885 after 24 hrs by two fold serial dilution technique; format: functional; conditions: ATCC 9885, 24 h
Proteus vulgaris [23] = assay: Antibacterial activity against Proteus vulgaris assessed as diameter of inhibition zone at 0.5 mg/ml after 24 hrs by agar well diffusion method; format: functional; conditions: read-out: DIZ
Priestia megaterium [24] = assay: Antibacterial activity against Bacillus megaterium ATCC 9885 assessed as diameter of inhibition zone at 0.5 mg/ml after 24 hrs by agar well diffusion method; format: functional; conditions: ATCC 9885, 24 h, read-out: DIZ
Staphylococcus aureus [25] = assay: microbe, parasite or virus in culture; conditions: ATCC 29213, 24 h, read-out: DIZ
Description: Antibacterial activity against Staphylococcus aureus ATCC 29213 assessed as diameter of inhibition zone at 0.5 mg/ml after 24 hrs by agar well diffusion method

Bacillus subtilis [26] = assay: microbe, parasite or virus in culture; conditions: ATCC 6633, 24 h, read-out: DIZ
Description: Antibacterial activity against Bacillus subtilis ATCC 6633 assessed as diameter of inhibition zone at 0.5 mg/ml after 24 hrs by agar well diffusion method

Klebsiella pneumoniae [27] = assay: microbe, parasite or virus in culture; conditions: ATCC 13883, 24 h, read-out: DIZ
Description: Antibacterial activity against Klebsiella pneumoniae ATCC 13883 assessed as diameter of inhibition zone at 0.5 mg/ml after 24 hrs by agar well diffusion method

Micrococcus luteus [28] = assay: Antibacterial activity against Sarcina lutea assessed as diameter of inhibition zone at 0.5 mg/ml after 24 hrs by agar well diffusion method; format: functional; conditions: read-out: DIZ
Pseudomonas aeruginosa [29] = assay: microbe, parasite or virus in culture; conditions: ATCC 27953, 24 h, read-out: DIZ
Description: Antibacterial activity against Pseudomonas aeruginosa ATCC 27953 assessed as diameter of inhibition zone at 0.5 mg/ml after 24 hrs by agar well diffusion method

Staphylococcus aureus [30] = assay: Ratio of Ciprofloxacin MIC to compound MIC for Staphylococcus aureus ATCC 29213; format: functional
Pseudomonas aeruginosa [31] = assay: Ratio of Ciprofloxacin MIC to compound MIC for Pseudomonas aeruginosa ATCC 27953; format: functional
Saccharomyces cerevisiae [32] = assay: Antifungal activity against Saccharomyces cerevisiae assessed as diameter of inhibition zone at 0.5 mg/ml after 24 hrs by agar well diffusion method; format: functional; conditions: read-out: DIZ
Candida albicans [33] = assay: Antifungal activity against Candida albicans NRRLY-477 assessed as diameter of inhibition zone at 0.5 mg/ml after 24 hrs by agar well diffusion method; format: functional; conditions: NRRLY-477, 24 h, read-out: DIZ

Row | Compound | MIC (Micrococcus luteus [1]) | MIC (Proteus vulgaris [2]) | MIC (Bacillus subtilis [6]) | MIC (Staphylococcus aureus [7]) | MIC (Klebsiella pneumoniae [8]) | MIC (Escherichia coli [12]) | MIC (Candida albicans [16]) | MIC (Pseudomonas aeruginosa [19]) | MIC (Saccharomyces cerevisiae [20]) | MIC (Priestia megaterium [22]) | zone of inhibition at 1000 µg/mL (Pseudomonas aeruginosa [3]) | zone of inhibition at 1000 µg/mL (Priestia megaterium [4]) | zone of inhibition at 1000 µg/mL (Proteus vulgaris [5]) | zone of inhibition at 1000 µg/mL (Escherichia coli [9]) | zone of inhibition at 1000 µg/mL (Micrococcus luteus [10]) | zone of inhibition at 1000 µg/mL (Bacillus subtilis [13]) | zone of inhibition at 1000 µg/mL (Saccharomyces cerevisiae [14]) | zone of inhibition at 1000 µg/mL (Klebsiella pneumoniae [15]) | zone of inhibition at 1000 µg/mL (Staphylococcus aureus [17]) | zone of inhibition at 1000 µg/mL (Candida albicans [18]) | other results
1 | O=C(O)c1cn(C2CC2)c2cc(N3CCNCC3)c(F)cc2c1=O [CIPROFLOXACIN] | 12.5 µg/mL (≈ 37.7 µM) | 12.5 µg/mL (≈ 37.7 µM) | 6.25 µg/mL (≈ 18.9 µM) | – | 12.5 µg/mL (≈ 37.7 µM) | 12.5 µg/mL (≈ 37.7 µM) | – | – | – | 6.25 µg/mL (≈ 18.9 µM) | – | – | – | – | – | – | – | – | – | – | zone of inhibition at 500 µg/mL (Proteus vulgaris [23]): 23 mm; zone of inhibition at 500 µg/mL (Priestia megaterium [24]): 24 mm; zone of inhibition at 500 µg/mL (Staphylococcus aureus [25]): 20 mm; zone of inhibition at 500 µg/mL (Bacillus subtilis [26]): 22 mm; zone of inhibition at 500 µg/mL (Klebsiella pneumoniae [27]): 25 mm; zone of inhibition at 500 µg/mL (Micrococcus luteus [28]): 20 mm; zone of inhibition at 500 µg/mL (Pseudomonas aeruginosa [29]): 24 mm
2 | O=C(O)CNC(=O)c1ccc(NC(=S)Nc2cccc(F)c2)cc1 | 12.5 µg/mL (≈ 36 µM) | 12.5 µg/mL (≈ 36 µM) | 12.5 µg/mL (≈ 36 µM) | 50 µg/mL (≈ 144 µM) | 12.5 µg/mL (≈ 36 µM) | 12.5 µg/mL (≈ 36 µM) | 12.5 µg/mL (≈ 36 µM) | 12.5 µg/mL (≈ 36 µM) | 25 µg/mL (≈ 72 µM) | 12.5 µg/mL (≈ 36 µM) | 21 mm | 27 mm | 25 mm | 20 mm | 20 mm | 18 mm | 17 mm | 23 mm | 20 mm | 22 mm | –
3 | O=C(O)CNC(=O)c1ccc(NC(=S)Nc2ccc(S(=O)(=O)Nc3ncccn3)cc2)cc1 | 12.5 µg/mL (≈ 25.7 µM) | 12.5 µg/mL (≈ 25.7 µM) | 12.5 µg/mL (≈ 25.7 µM) | 3.12 µg/mL (≈ 6.41 µM) | 12.5 µg/mL (≈ 25.7 µM) | 6.25 µg/mL (≈ 12.8 µM) | 12.5 µg/mL (≈ 25.7 µM) | 3.12 µg/mL (≈ 6.41 µM) | 3.12 µg/mL (≈ 6.41 µM) | 12.5 µg/mL (≈ 25.7 µM) | 34 mm | 27 mm | 21 mm | 32 mm | 25 mm | 26 mm | 30 mm | 17 mm | 32 mm | 25 mm | Ratio (Staphylococcus aureus [30]): 2; Ratio (Pseudomonas aeruginosa [31]): 4
4 | CC(=O)N1CCN(c2ccc(OCC3COC(Cn4ccnc4)(c4ccc(Cl)cc4Cl)O3)cc2)CC1 (stereo not given) [KETOCONAZOLE] | – | – | – | – | – | – | 6.25 µg/mL (≈ 11.8 µM) | – | 3.12 µg/mL (≈ 5.87 µM) | – | – | – | – | – | – | – | – | – | – | – | zone of inhibition at 500 µg/mL (Saccharomyces cerevisiae [32]): 23 mm; zone of inhibition at 500 µg/mL (Candida albicans [33]): 22 mm

Continued by falling MIC (Micrococcus luteus [1]), values first:

Row | MIC (Micrococcus luteus [1]) | MIC (Proteus vulgaris [2]) | MIC (Bacillus subtilis [6]) | MIC (Staphylococcus aureus [7]) | MIC (Klebsiella pneumoniae [8]) | MIC (Escherichia coli [12]) | MIC (Candida albicans [16]) | MIC (Pseudomonas aeruginosa [19]) | MIC (Saccharomyces cerevisiae [20]) | MIC (Priestia megaterium [22]) | Compound | zone of inhibition at 1000 µg/mL (Pseudomonas aeruginosa [3]) | zone of inhibition at 1000 µg/mL (Priestia megaterium [4]) | zone of inhibition at 1000 µg/mL (Proteus vulgaris [5]) | zone of inhibition at 1000 µg/mL (Escherichia coli [9]) | zone of inhibition at 1000 µg/mL (Micrococcus luteus [10]) | zone of inhibition at 1000 µg/mL (Bacillus subtilis [13]) | zone of inhibition at 1000 µg/mL (Saccharomyces cerevisiae [14]) | zone of inhibition at 1000 µg/mL (Klebsiella pneumoniae [15]) | zone of inhibition at 1000 µg/mL (Staphylococcus aureus [17]) | zone of inhibition at 1000 µg/mL (Candida albicans [18]) | other results
5 | 12.5 µg/mL (≈ 30.6 µM) | 6.25 µg/mL (≈ 15.3 µM) | 3.12 µg/mL (≈ 7.64 µM) | 6.25 µg/mL (≈ 15.3 µM) | 6.25 µg/mL (≈ 15.3 µM) | 6.25 µg/mL (≈ 15.3 µM) | 3.12 µg/mL (≈ 7.64 µM) | 12.5 µg/mL (≈ 30.6 µM) | 6.25 µg/mL (≈ 15.3 µM) | 3.12 µg/mL (≈ 7.64 µM) | O=C(O)CNC(=O)c1ccc(NC(=S)Nc2cccc(Br)c2)cc1 | 22 mm | 32 mm | 24 mm | 27 mm | 20 mm | 30 mm | 28 mm | 30 mm | 31 mm | 30 mm | Ratio (Bacillus subtilis [11]): 2; Ratio (Candida albicans [21]): 2
6 | 12.5 µg/mL (≈ 30.6 µM) | 12.5 µg/mL (≈ 30.6 µM) | 3.12 µg/mL (≈ 7.64 µM) | 6.25 µg/mL (≈ 15.3 µM) | 12.5 µg/mL (≈ 30.6 µM) | 6.25 µg/mL (≈ 15.3 µM) | 3.12 µg/mL (≈ 7.64 µM) | 12.5 µg/mL (≈ 30.6 µM) | 12.5 µg/mL (≈ 30.6 µM) | 3.12 µg/mL (≈ 7.64 µM) | O=C(O)CNC(=O)c1ccc(NC(=S)NNS(=O)(=O)c2ccccc2)cc1 | 23 mm | 31 mm | 20 mm | 29 mm | 20 mm | 30 mm | 24 mm | 25 mm | 32 mm | 32 mm | Ratio (Bacillus subtilis [11]): 2; Ratio (Candida albicans [21]): 2
7 | 12.5 µg/mL (≈ 26.4 µM) | 6.25 µg/mL (≈ 13.2 µM) | 3.12 µg/mL (≈ 6.6 µM) | 6.25 µg/mL (≈ 13.2 µM) | 12.5 µg/mL (≈ 26.4 µM) | 6.25 µg/mL (≈ 13.2 µM) | 3.12 µg/mL (≈ 6.6 µM) | 12.5 µg/mL (≈ 26.4 µM) | 12.5 µg/mL (≈ 26.4 µM) | 6.25 µg/mL (≈ 13.2 µM) | Nc1n[nH]c(NC(=S)Nc2ccc(C(=O)NCC(=O)O)cc2)c1/N=N/c1ccc(Cl)cc1 | 28 mm | 27 mm | 28 mm | 28 mm | 30 mm | 32 mm | 25 mm | 22 mm | 28 mm | 30 mm | Ratio (Bacillus subtilis [11]): 2; Ratio (Candida albicans [21]): 2

— ChEMBL document CHEMBL2385069, “Thiourea derivatives incorporating a hippuric acid moiety: synthesis and evaluation of antibacterial and antifungal activities” (2013)
